{
  "source": "paper PMC12621189",
  "about": "“Optimization of Selective and CNS Penetrant Alkyne-Based TREK Inhibitors: The Discovery and Characterization of ONO-9517601 (VU6022856) and ONO-7927846 (VU6024391)” (Journal of Medicinal Chemistry, 2025)",
  "key": {"[1]": {"target": "T1, mouse TREK-1 (mTREK-1) (Mus musculus, UniProt P97438)", "T1 construct": "expressed in transfected cells; host or cells: CHO-K1 (transient)", "T1 sequence (P97438 1-426)": "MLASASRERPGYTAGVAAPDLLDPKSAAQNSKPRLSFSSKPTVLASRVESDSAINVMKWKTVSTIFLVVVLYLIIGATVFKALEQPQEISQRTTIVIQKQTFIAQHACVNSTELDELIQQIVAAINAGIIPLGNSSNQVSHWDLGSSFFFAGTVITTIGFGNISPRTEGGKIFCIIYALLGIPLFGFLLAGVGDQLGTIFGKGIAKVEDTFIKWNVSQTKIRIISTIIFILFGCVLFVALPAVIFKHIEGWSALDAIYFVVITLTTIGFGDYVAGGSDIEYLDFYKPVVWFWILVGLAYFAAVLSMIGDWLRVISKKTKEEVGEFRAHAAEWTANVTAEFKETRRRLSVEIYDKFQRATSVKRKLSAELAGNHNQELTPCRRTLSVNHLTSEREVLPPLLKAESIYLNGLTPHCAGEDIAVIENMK", "assay": "mTREK-1 manual patch clamp assay", "assay_type": "cell-based", "details": "mouse TREK-1, manual patch clamp; read-out: TREK-1 IC50 (mouse, MPC)", "method": "hTREK-1 and mTREK-1 patch clamp assay\nCHO-K1 cells stably expressing hTREK-1 or CHO-K1 cells transiently expressing mouse TREK-1 (mTREK-1) were plated on glass coverslips, and voltage clamped in the whole-cell configuration of the patch clamp technique. Cells were voltage clamped at a holding potential of - 80 mV and the stepped to 0 mV for 500 msec. The voltage was subsequently ramped from -120mV to +80 mV over a 500 msec duration. This step-ramp protocol was repeated every 10 sec. The bathing solution contained the following: 135 mM NaCl, 5 mM KCl, 2 mM CaCl2, 1 mM MgCl2, 5 mM D-Glucose, 10 mM HEPES, 10 mM sucrose (adjusted to pH 7.4 with NaOH, 300 mosmol/kg H2O). The pipette solution contained the following: 135 mM KCl, 2 mM MgCl2, 1 mM EGTA, 10 mM HEPES, 2 mM Na2ATP (adjusted to pH 7.35 with KOH, 285 mosmol/kg H2O). Test […]\ncompounds were dissolved into the bathing solution. The effects of test compound on the currents were calculated at 0 mV using the following equations:\n% inhibition = (1-post current/pre current) x 100\n% inhibition vs compound concentrations were plotted in GraphPad Prism and calculated IC50. […]"}, "[2]": {"assay": "ChromatoLogD", "assay_type": "physicochemical"}, "[3]": {"assay": "Liver microsome intrinsic clearance, mouse", "assay_type": "in vitro ADME", "details": "mouse liver microsomes, predicted intrinsic clearance, read-out: LMS CLINT mouse"}, "[4]": {"assay": "Rat in vivo PK (plasma clearance) in SAR tables", "details": "read-out: Rat CLp"}, "[5]": {"assay": "CACO-2 efflux ratio", "assay_type": "in vitro ADME", "details": "human, pH 7.4, efflux ratio, read-out: CACO-2 (ER)"}, "[6]": {"target": "CYP 2C9 (Homo sapiens, UniProt P11712)", "sequence (P11712 whole entry)": "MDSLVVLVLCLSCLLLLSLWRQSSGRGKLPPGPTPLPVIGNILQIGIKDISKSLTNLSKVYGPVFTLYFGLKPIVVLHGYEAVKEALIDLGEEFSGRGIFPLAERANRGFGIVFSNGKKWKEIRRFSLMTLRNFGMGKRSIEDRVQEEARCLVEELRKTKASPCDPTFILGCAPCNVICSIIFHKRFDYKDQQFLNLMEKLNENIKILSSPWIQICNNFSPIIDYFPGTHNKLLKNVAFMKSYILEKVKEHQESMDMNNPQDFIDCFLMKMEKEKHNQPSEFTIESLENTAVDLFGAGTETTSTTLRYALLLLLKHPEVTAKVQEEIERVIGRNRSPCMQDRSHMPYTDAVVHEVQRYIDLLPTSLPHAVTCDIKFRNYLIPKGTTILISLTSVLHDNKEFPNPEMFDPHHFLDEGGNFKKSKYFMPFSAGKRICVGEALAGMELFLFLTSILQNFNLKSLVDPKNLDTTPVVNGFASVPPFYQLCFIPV", "assay": "CYP450 inhibition 2C9", "assay_type": "in vitro ADME"}, "[7]": {"assay": "IV/PO pharmacokinetic study, NHP (cyno)", "assay_type": "in vivo", "details": "for clearance / Vd / half-life / Cmax: cynomolgus monkey, plasma; for clearance / Vd / half-life: iv 1 mg/kg; for clearance: read-out: CLp; for Vd: read-out: Vss; for half-life: read-out: elimination t1/2 (converted); for Cmax / F (%) po: po 1 mg/kg"}, "[8]": {"assay": "Brain homogenate binding, mouse", "assay_type": "in vitro ADME", "details": "bound", "method": "(§1) concentration), which was aliquoted in triplicate to the ‘bottom half’ of the prepared HTD plate wells. The HTD plate was sealed and incubated for 6 hours at 37 °C. Following incubation, each well (both top and bottom halves) were transferred (20 µL) to the corresponding wells of a 96-shallow-well (V-bottom) plate. The daughter plates were then matrix-matched (DPBS side wells received equal volume of plasma, and plasma side wells received equal volume of DPBS), and extraction solution (120 µL; acetonitrile containing 50 nM carbamazepine as IS) was added to all wells of both daughter plates to precipitate protein and extract test article. […]\n(§2) The unbound fraction (f u) was calculated following the equation below, and mean values for each species were calculated from 3 replicates.\n(§3) A similar approach was used to determine the degree of brain homogenate binding, which employed the same methodology and procedure with the following modifications: 1) a final compound concentration of 1 μM was used, 2) naïve rat brains were homogenized in DPBS (1:3 composition of brain: DPBS, w/w) using a Mini-Bead Beater™ machine in order to obtain brain homogenate, which was then treated in the same manner as the plasma samples in the previously described plasma protein binding assay. Fraction unbound for both plasma and brain samples was determined using Equation 4. […]"}, "[9]": {"target": "KCNQ1/E1 (Homo sapiens, UniProt P51787)", "assay": "MPC ion channel panel, KCNQ1/E1", "assay_type": "cell-based"}, "[10]": {"assay": "Brain homogenate binding, rat", "assay_type": "in vitro ADME", "details": "bound", "method": "as §1, §2, §3"}, "[11]": {"target": "mouse TREK-1 (Mus musculus, UniProt P97438)", "assay": "mouse TREK-1 thallium flux", "assay_type": "cell-based", "details": "read-out: TREK-1 IC50 (mouse, Tl+)"}},
  "note": "Where “and” joins values, the source holds several entries; their conditions need not be identical. Equal values may be shown once.",
  "data": [
    {"smiles": "Cc1cc(C#Cc2ccccc2)cnc1NC(=O)c1cc(OC[C@@H]2COCCO2)ccc1Cl", "note": "[Compound 7, (S)-5-((1,4-Dioxan-2-yl)methoxy)-2-chloro-N-(3-methyl-5-(phenylethynyl)pyridin-2-yl)benzamide]", "values": [
      {"measurement": "IC50", "setting": "[1]", "result": 170, "unit": "nM"},
      {"measurement": "chromatographic logD", "setting": "[2]", "result": 4.14},
      {"measurement": "CLint scaled at 1 µM", "setting": "[3]; pH 7.4", "result": 88, "unit": "mL/min/kg"},
      {"measurement": "clearance", "setting": "[4]", "result": 9.43, "unit": "mL/min/kg"}
    ]},
    {"smiles": "CC(=O)N1CCC(n2ncc(Cl)c2C(=O)Nc2ncc(C#Cc3ccccc3)cc2C)CC1", "note": "[Compound 10, 1-(1-Acetylpiperidin-4-yl)-4-chloro-N-(3-methyl-5-(phenylethynyl)pyridin-2-yl)-1H-pyrazole-5-carboxamide]", "values": [
      {"measurement": "efflux ratio", "setting": "[5]", "result": 0.7},
      {"measurement": "IC50", "setting": "[1]", "result": 67, "unit": "nM"},
      {"measurement": "chromatographic logD", "setting": "[2]", "result": 3.8},
      {"measurement": "IC50", "setting": "[6]", "result": 6.1, "unit": "µM"},
      {"measurement": "CLint scaled", "setting": "[3]", "result": 8, "unit": "mL/min/kg"},
      {"measurement": "clearance", "setting": "[7]", "result": 13.3, "unit": "mL/min/kg"},
      {"measurement": "Vd", "setting": "[7]", "result": 2.1, "unit": "L/kg"},
      {"measurement": "half-life", "setting": "[7]", "result": 198, "unit": "min"},
      {"measurement": "Cmax", "setting": "[7]", "result": 152, "unit": "ng/mL"},
      {"measurement": "F (%) po", "setting": "[7]", "result": 34, "unit": "%"},
      {"measurement": "BHB mouse", "setting": "[8]", "result": "99.5% and 99.5, 99.5%"},
      {"measurement": "inhibition at 10 µM", "setting": "[9]", "result": "≤ 50", "unit": "%"},
      {"measurement": "BHB rat", "setting": "[10]", "result": "99.5% and 99.5, 99.5%"},
      {"measurement": "IC50", "setting": "[11]", "result": 230, "unit": "nM"},
      {"measurement": "clearance", "setting": "[4]", "result": 27.7, "unit": "mL/min/kg"}
    ]},
    {"smiles": "CC(=O)N1CC[C@@H](n2ncc(Cl)c2C(=O)Nc2ncc(C#Cc3ccc(F)cc3)cc2C)[C@H](F)C1", "note": "[Compound 11, 1-((3R,4R)-1-Acetyl-3-fluoropiperidin-4-yl)-4-chloro-N-(5-((4-fluorophenyl)ethynyl)-3-methylpyridin-2-yl)-1H-pyrazole-5-carboxamide]", "values": [
      {"measurement": "efflux ratio", "setting": "[5]", "result": 0.91},
      {"measurement": "IC50", "setting": "[1]", "result": 760, "unit": "nM"},
      {"measurement": "chromatographic logD", "setting": "[2]", "result": 3.9},
      {"measurement": "IC50", "setting": "[6]", "result": 4.9, "unit": "µM"},
      {"measurement": "CLint scaled", "setting": "[3]", "result": 134, "unit": "mL/min/kg"},
      {"measurement": "clearance", "setting": "[7]", "result": 6.5, "unit": "mL/min/kg"},
      {"measurement": "Vd", "setting": "[7]", "result": 4.4, "unit": "L/kg"},
      {"measurement": "half-life", "setting": "[7]", "result": 558, "unit": "min"},
      {"measurement": "Cmax", "setting": "[7]", "result": 260, "unit": "ng/mL"},
      {"measurement": "F (%) po", "setting": "[7]", "result": 89, "unit": "%"},
      {"measurement": "BHB mouse", "setting": "[8]", "result": 99.5, "unit": "%"},
      {"measurement": "inhibition at 10 µM", "setting": "[9]", "result": 60, "unit": "%"},
      {"measurement": "BHB rat", "setting": "[10]", "result": 99.4, "unit": "%"},
      {"measurement": "IC50", "setting": "[11]", "result": 440, "unit": "nM"}
    ]},
    {"smiles": "Cc1cc(C#Cc2ccccc2)cnc1NC(=O)c1c(Cl)cnn1[C@H]1CCOC1", "note": "[Compound 15a, (S)-4-Chloro-N-(3-methyl-5-(phenylethynyl)pyridin-2-yl)-1-(tetrahydrofuran-3-yl)-1H-pyrazole-5-carboxamide]", "values": [
      {"measurement": "clearance", "setting": "[4]", "result": 8.9, "unit": "mL/min/kg"}
    ]}
  ]
}
